{"source": "patent US20230149401A1", "about": "(priority 2020, published 2023)", "tested_on": "HIV particles pseudotyped with SARS-CoV-2 S", "type": "cell-based", "data": [{"compound": "CCN(CC)CCCC(C)Nc1ccnc2cc(Cl)ccc12", "note": "(stereo not shown) [chloroquine, reference compound]", "values": [{"measurement": "Entry of pseudotyped SARS-CoV-2 and its μS1/S2 mutant", "value": "efficiently blocked entry"}]}]}
